Data taken from PMC3805977 (Scientific Reports, 2013).

Test system: HIV-1
Assay: HIV-1 inhibition assay, isolates not separated
Type: cell-based
Conditions: across HIV-1 clades; effect augmented with streptavidin conjugation

Sequence: SSCSVRSSCRLYYSC
- HIV-1 inhibitory activity, in words: did not show any HIV-1 inhibition
